Counter-ions that a name gives are not always drawn.

Test [1] addresses T1, DDR1 kinase (Homo sapiens, UniProt Q08345). The test can be described thus: Evaluation of DDR1 kinase inhibition (LANCE Ultra TR-FRET kinase assay). The note with it: DDR1 protein 0.5 nM, LANCE Ultra ULight-poly GAT substrate, 2 hours at room temperature, duplicate; read-out: DDR-1 IC50. More on the design: purchased Carna Biosciences 08-113. The class given is biochemical.
Target sequence in this assay (Q08345 19-876 isoform Q08345-2 limits assumed): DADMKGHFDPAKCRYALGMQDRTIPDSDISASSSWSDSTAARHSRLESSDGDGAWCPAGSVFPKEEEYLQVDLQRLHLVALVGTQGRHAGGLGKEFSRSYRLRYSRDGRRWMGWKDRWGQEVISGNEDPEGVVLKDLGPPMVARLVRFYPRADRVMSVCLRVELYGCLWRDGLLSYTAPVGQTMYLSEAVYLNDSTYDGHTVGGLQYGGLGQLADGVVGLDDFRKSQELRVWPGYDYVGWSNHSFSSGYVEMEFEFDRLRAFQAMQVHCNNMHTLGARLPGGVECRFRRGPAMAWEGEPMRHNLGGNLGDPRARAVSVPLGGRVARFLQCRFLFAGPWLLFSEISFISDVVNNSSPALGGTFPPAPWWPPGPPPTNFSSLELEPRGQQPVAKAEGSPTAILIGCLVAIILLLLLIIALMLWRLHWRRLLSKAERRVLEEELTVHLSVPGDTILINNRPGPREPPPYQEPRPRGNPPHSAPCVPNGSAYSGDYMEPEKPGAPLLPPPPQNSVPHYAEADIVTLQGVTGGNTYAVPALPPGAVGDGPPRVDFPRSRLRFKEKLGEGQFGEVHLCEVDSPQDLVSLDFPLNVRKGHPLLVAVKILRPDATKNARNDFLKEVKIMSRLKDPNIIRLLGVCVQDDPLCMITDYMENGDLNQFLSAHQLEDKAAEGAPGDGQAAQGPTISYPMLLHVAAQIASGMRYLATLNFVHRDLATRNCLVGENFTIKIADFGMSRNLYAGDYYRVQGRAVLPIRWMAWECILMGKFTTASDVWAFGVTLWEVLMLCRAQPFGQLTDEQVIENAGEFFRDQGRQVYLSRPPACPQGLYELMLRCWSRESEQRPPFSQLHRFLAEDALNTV
Test [2] deals with T1, DDR1 kinase. The test can be described thus: Evaluation of DDR1 kinase inhibition in DDR1-expressing U2OS cells (type I collagen stimulation, PathHunter detection). The format is cell-based. The arrangement: host or cells: U2OS. The following applies: type I collagen 50 µg/mL stimulation, duplicate, read-out: DDR-1 IC50. Here is the method: The solution was further diluted in an E-MEM medium (Fujifilm Wako Pure Chemicals, 051-07615) containing 10% fetal bovine serum (FBS, Gibco, 10270106) to 60000, 6000, 600, 60, 6, and 0.6 nM to prepare test substance solutions. 2. […] On the following day, after the plate was left at room temperature for 1 hour, a detection solution was added to the wells at […] according to the handling instructions for the PathHunter® Detection Kit (DiscoverX, 93-0001), and then incubated at room temperature for 2 hours. After the incubation, a luminescence intensity was measured by Envision (Perkin-Elmer). Tests were performed in duplicate. 3.
Target sequence in this assay (Q08345 19-913): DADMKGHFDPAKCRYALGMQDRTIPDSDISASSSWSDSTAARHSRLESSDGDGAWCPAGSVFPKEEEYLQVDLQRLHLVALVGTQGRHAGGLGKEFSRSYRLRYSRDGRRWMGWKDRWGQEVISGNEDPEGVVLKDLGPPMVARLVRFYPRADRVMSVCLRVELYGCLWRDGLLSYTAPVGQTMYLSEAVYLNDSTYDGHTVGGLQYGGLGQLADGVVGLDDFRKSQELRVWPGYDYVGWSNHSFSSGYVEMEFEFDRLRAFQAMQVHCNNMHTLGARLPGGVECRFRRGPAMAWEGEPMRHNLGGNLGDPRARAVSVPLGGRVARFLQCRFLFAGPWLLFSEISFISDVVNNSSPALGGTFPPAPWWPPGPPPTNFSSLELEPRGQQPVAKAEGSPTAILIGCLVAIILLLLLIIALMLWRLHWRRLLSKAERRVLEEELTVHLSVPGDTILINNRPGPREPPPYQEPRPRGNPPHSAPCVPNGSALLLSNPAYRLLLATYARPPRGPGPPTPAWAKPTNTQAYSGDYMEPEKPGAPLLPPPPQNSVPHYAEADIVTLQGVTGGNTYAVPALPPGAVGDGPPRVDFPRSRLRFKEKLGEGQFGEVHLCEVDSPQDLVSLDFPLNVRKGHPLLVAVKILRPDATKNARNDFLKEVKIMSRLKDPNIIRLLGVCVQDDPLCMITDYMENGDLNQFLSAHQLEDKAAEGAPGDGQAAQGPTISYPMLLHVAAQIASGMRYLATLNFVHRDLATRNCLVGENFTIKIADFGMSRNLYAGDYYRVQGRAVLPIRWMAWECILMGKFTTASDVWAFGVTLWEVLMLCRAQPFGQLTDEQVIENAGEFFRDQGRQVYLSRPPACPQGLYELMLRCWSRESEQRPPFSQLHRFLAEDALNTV

In the case of `Nc1cc(C(=O)N2CC(c3nn(CC(=O)N4CCC[C@H]4C(F)(F)F)c4cc(F)cc(F)c34)C2)cnn1` [Compound E-16, 2-{3-[1-(6-aminopyridazine-4-carbonyl)azetidin-3-yl]-4,6-difluoro-1H-indazol-1-yl)-1-[(2S)-2-(trifluoromethyl)pyrrolidin-1-yl]ethan-1-one], the IC50 in test [1] is 15 nM; in test [2] it was 720 nM.
Consider `CN(CC(F)(F)F)C(=O)Cn1nc(C2CN(C(=O)c3cc(N)ncc3F)C2)c2ccccc21` [Compound E-240, 2-{3-[1-(2-amino-5-fluoropyridine-4-carbonyl)azetidin-3-yl}-1H-indazol-1-yl}-N-methyl-N-(2,2,2-trifluoroethyl)acetamide], for which the IC50 in test [1] was 5 nM; in test [2], 140 nM.
For `CNc1cc(C(=O)N2CC(c3nn(CC(=O)NCC(F)(F)F)c4cccc(Cl)c34)C2)ccn1` [Compound E-63, 2-(4-chloro-3-{1-[2-(methylamino)pyridine-4-carbonyl]azetidin-3-yl]-1H-indazol-1-yl)-N-(2,2,2-trifluoroethyl)acetamide], in that order: 4.3 nM and 140 nM.
Taken in the same sequence, the figures for `Nc1cc(C(=O)N2CC(c3nn(CC(=O)NCC(F)F)c4cccc(F)c34)C2)ccn1` [Compound E-242, 2-{3-[1-(2-aminopyridine-4-carbonyl)azetidin-3-yl]-4-fluoro-1H-indazol-1-yl}-N-(2,2-difluoroethyl)acetamide] were 30 nM and 740 nM.
For `Nc1cc(C(=O)N2CC(c3nn(CC(=O)NC4CCCC4(F)F)c4ccccc34)C2)ccn1` (centres unmarked) [Compound E-225, 2-{3-[1-(2-aminopyridine-4-carbonyl)azetidin-3-yl}-1H-indazol-1-yl}-N-(2,2-difluorocyclopentyl)acetamide], in that order: 17 nM and 450 nM.
On to `Nc1cc(C(=O)N2CC(c3nn(Cc4cn(CC5CC(F)(F)C5)nn4)c4cccc(F)c34)C2)ccn1` [Compound E-19, 4-{3-[1-({1-[(3,3-difluorocyclobutyl)methyl]-1H-1,2,3-triazol-4-yl}methyl)-4-fluoro-1H-indazol-3-yl]azetidine-1-carbonyl}pyridin-2-amine hydrochloride], for which the IC50 in test [1] worked out at 56 nM; in test [2], 84 nM.
For `Nc1cc(C(=O)N2CC(c3nn(CC(=O)N4CCC[C@H]4C(F)(F)F)c4ccncc34)C2)ccn1` [Compound E-13, 2-{3-[1-(2-aminopyridine-4-carbonyl)azetidin-3-yl]-1H-pyrazolo[4,3-c]pyridin-1-yl]-1-[(2S)-2-(trifluoromethyl)pyrrolidin-1-yl]ethan-1-one hydrochloride], in that order: 47 nM and 1200 nM.
Taken in the same sequence, the figures for `CN(CC(F)(F)F)C(=O)Cn1nc(C2CN(C(=O)c3ccnc(N)c3)C2)c2ccccc21` [Compound E-45, 2-{3-[1-(2-aminopyridine-4-carbonyl)azetidin-3-yl]-1H-indazol-1-yl}-N-methyl-N-(2,2,2-trifluoroethyl)acetamide] were 4.4 nM and 140 nM.
For the compound `N#C[C@@H]1CCCN1C(=O)Cn1nc(C2CN(C(=O)c3cc(N)ncc3F)C2)c2ccccc21` [Compound E-236], the half-inhibitory concentration (IC50) in test [1] was 4.8 nM; in test [2], 120 nM.
Taken in the same sequence, the figures for `Cc1c(C(=O)N2CC(c3nn(CC(=O)N4CCO[C@H](C(F)(F)F)C4)c4cc(F)cc(F)c34)C2)ccnc1N` [Compound E-89, 2-{3-[1-(2-amino-3-methylpyridine-4-carbonyl)azetidin-3-yl]-4,6-difluoro-1H-indazol-1-yl]-1-[(2S)-2-(trifluoromethyl)morpholin-4-yllethan-1-one hydrochloride] were 45 nM and 400 nM.
For `Nc1cc(C(=O)N2CC(c3nn(Cc4nc(-c5cccc(C(F)(F)F)c5)no4)c4cccc(F)c34)C2)ccn1` [Compound E-55, 4-{3-[4-fluoro-1-({3-[3-(trifluoromethyl)phenyl]-1,2,4-oxadiazol-5-yl}methyl)-1H-indazol-3-yl]azetidine-1-carbonyl}pyridin-2-amine], in that order: 23 nM and 150 nM.
As to `Nc1cc(C(=O)N2CC(c3nn(Cc4nnc(-c5ccc(F)cc5)o4)c4cccc(F)c34)C2)ccn1` [Compound E-20, 4-[3-(4-fluoro-1-{[5-(4-fluorophenyl)-1,3,4-oxadiazol-2-yl]methyl}-1H-indazol-3-yl)azetidine-1-carbonyl]pyridin-2-amine], the IC50 in test [1] came out at 84 nM.
For the compound `Nc1cc(C(=O)N2CC(c3nn(CC(=O)N4CCc5ccc(Br)cc54)c4cc(F)cc(F)c34)C2)ccn1` [Compound E-161], the IC50 in test [1] was 0.3 nM.
The same measure, in the same setting: the same measure for `CN1CCN(C(=O)Cn2nc(C3CN(C(=O)c4cc(N)ncc4F)C3)c3ccccc32)CC1` [Compound E-260]: 240 nM; for `CC1(c2nn(CC(=O)N3CCC[C@H]3C(F)(F)F)c3ccccc23)CN(C(=O)c2cc(N)ncc2F)C1` [Compound E-271, 2-{3-[1-(2-amino-5-fluoropyridine-4-carbonyl)-3-methylazetidin-3-yl]-1H-indazol-1-yl}-1-[(2S)-2-(trifluoromethyl)pyrrolidin-1-yl]ethan-1-one]: 4 nM.
Same read-out and setting: the same measure for `Cc1c(C(=O)N2CC(c3nn(CC(=O)N4CCC[C@H]4COC(F)(F)F)c4cncc(F)c34)C2)ccnc1N` [Compound E-44, 2-{3-[1-(2-amino-3-methylpyridine-4-carbonyl)azetidin-3-yl]-4-fluoro-1H-pyrazolo[3,4-c]pyridin-1-yl]-1-[(2S)-2-[(trifluoromethoxy)methyl]pyrrolidin-1-yl]ethan-1-one di-p-toluenesulfonate]: 9.2 nM; for `Nc1cc(C(=O)N2CC(c3nn(Cc4nnc(C(F)(F)F)o4)c4cccc(F)c34)C2)ccn1` [Compound E-128, 4-[3-(4-fluoro-1-{[5-(trifluoromethyl)-1,3,4-oxadiazol-2-yl]methyl}-1H-indazol-3-yl)azetidine-1-carbonyl}pyridin-2-amine]: 180 nM; for `Nc1cc(C(=O)N2CC(c3nn(Cc4ccc(C(F)(F)F)cc4)c4cncc(F)c34)C2)ccn1` [Compound E-151, 4-[3-(4-fluoro-1-{[4-(trifluromethyl)phenyl]methyl}-1H-pyrazolo[3,4-c]pyridin-3-yl)azetidine-1-carbonyl]pyridin-2-amine]: 160 nM.
As for `Nc1cc(C(=O)N2CC(c3nn(CC4CN(c5ccccc5)C4)c4cc(F)cc(F)c34)C2)ccn1` [Compound E-157, 4-(3-{4,6-difluoro-1-[(1-phenylazetidin-3-yl)methyl)-1H-indazol-3-yl}azetidine-1-carbonyl)pyridin-2-amine], the 50% inhibitory concentration (IC50) in test [1] came to 350 nM.
Same read-out and setting: the result for `CC1(C)COCCN1C(=O)Cn1nc(C2CN(C(=O)c3cc(N)ncc3F)C2)c2c(F)cc(F)cc21` [Compound E-177, 2-{3-[1-(2-amino-5-fluoropyridine-4-carbonyl)azetidin-3-yl)-4,6-difluoro-1H-indazol-1-yl}-1-(3,3-dimethylmorpholin-4-yl)ethan-1-one] reads 2.1 nM; that for `CCN(CC(F)(F)F)C(=O)Cn1nc(C2CN(C(=O)c3cc(N)ncc3F)C2)c2ccccc21` [Compound E-249, 2-{3-[1-(2-amino-5-fluoropyridine-4-carbonyl)azetidin-3-yl]-1H-indazol-1-yl}-N-ethyl-N-(2,2,2-trifluoroethyl)acetamide], 3.5 nM.

The values are drawn from EP4624465A1, “COMPOUND SERVING AS DDR1 KINASE INHIBITOR, AND MEDICINE” (Nippon Shinyaku Co., Ltd., priority 2022, dated 2024).
